Results on three molecules are retold here after DBAASP.

Among the test systems are Staphylococcus aureus; Streptococcus agalactiae; Escherichia coli D21; Escherichia coli ML-35; Cryptococcus neoformans; Serratia marcescens; Bacillus megaterium Bm11; Candida albicans; Enterococcus faecium; Escherichia coli D31; Bacillus subtilis QB935; Escherichia coli K-12; Klebsiella pneumoniae; Salmonella typhimurium; Escherichia coli D22; Alcaligenes faecalis; Burkholderia cepacia; Micrococcus luteus; Bacillus megaterium; Enterococcus faecalis; Aerococcus viridans; Serratia marcescens Db11; Escherichia coli 1106; Bacillus thuringiensis.

What all share (experiment): ≥ marks a high value that may be exact or a test limit, other limits are often not marked, values filed in µg/mL are converted to µM
Test [1] relates to Staphylococcus aureus 145/08.
In test [2] the test system is Candida albicans ATCC 90028.
The subject of test [3] is Staphylococcus aureus 274/08.
For test [4], the system named is Escherichia coli ATCC 25726.
The test system of test [5] is Staphylococcus aureus NCTC 8325.
The subject of test [6] is Staphylococcus aureus S908.
For test [7], the system named is Staphylococcus aureus V4180.
For test [8], the system named is Staphylococcus aureus T4/6.
Test [9] concerns Klebsiella pneumoniae ATCC 700603.
Test [10] concerns Escherichia coli ATCC 25922.
The subject of test [11] is Staphylococcus aureus 127/08.
The subject of test [12] is Pseudomonas aeruginosa ATCC 27853.
For test [13], the system named is Acinetobacter baumannii I NM8.
For test [14], the system named is Staphylococcus epidermidis ATCC 12228.
Test [15] concerns Escherichia coli O18:K1:H7 Bort.
Test [16] has as its system Staphylococcus aureus ATCC 25923.
In test [17] the test system is Staphylococcus aureus ATCC 9144.
Test [18] has as its system Escherichia coli ATCC 10536.
For test [19], the system named is Staphylococcus aureus Cowan 1.
The test system of test [20] is Bacillus subtilis ATCC 6633.
Test [21] deals with Serratia marcescens ATCC 8100.
In test [22] the test system is Salmonella enterica subsp. enterica serovar Typhimurium ATCC 14028.
Test [23] relates to Escherichia coli DH5alpha.
Test [24] has as its system Pectobacterium carotovorum subsp. carotovorum.
Test [25] has as its system Xanthomonas campestris pv. oryzae.
Test [26] relates to Enterobacter cloacae beta-12.
The test system of test [27] is Pseudomonas aeruginosa ATCC 82118.
Test [28] relates to Staphylococcus aureus USA 300.

Values after ≈ are worked out from the molar mass of the structure shown. Values joined by “and” are separate entries in the source; they are usually repeats but may differ in a detail not shown here. Equal values may be shown once. Where only a bound is given, the exact number is not on record here.

A word on the MIC: it is the lowest concentration that inhibits growth of the organism. Turning to `CC(C)C[C@H](NC(=O)[C@H](CC(C)C)NC(=O)[C@H](CC(N)=O)NC(=O)[C@H](CO)NC(=O)CNC(=O)[C@@H](NC(=O)[C@H](CCCCN)NC(=O)[C@H](CC(C)C)NC(=O)CNC(=O)[C@@H](NC(=O)[C@H](CCCCN)NC(=O)[C@H](CC(C)C)NC(=O)[C@H](CC(C)C)NC(=O)[C@H](CO)NC(=O)CNC(=O)[C@H](CC(C)C)NC(=O)[C@H](Cc1ccccc1)NC(=O)CN)[C@@H](C)O)C(C)C)C(N)=O` [GFLGSLLKTGLKVGSNLL], the MIC in [1] is 5 µM (≈ 9.08 µg/mL); in test [2], at least 100 µM; in [3], 5 µM (≈ 9.08 µg/mL); in test [4], at least 50 µM; in test [5] it was at least 80 µM; in [6], 5 µM (≈ 9.08 µg/mL). Further, the MIC in test [7] was 5 µM (≈ 9.08 µg/mL); in test [8], 5 µM (≈ 9.08 µg/mL); in [9] it was 50 µM (≈ 90.8 µg/mL); in test [10] it was 50 µM (≈ 90.8 µg/mL); in test [11] it was 5 µM (≈ 9.08 µg/mL); in [12], 50 µM (≈ 90.8 µg/mL). In [13], this molecule gave an MIC of 6 µM (≈ 10.9 µg/mL).

For `CC[C@H](C)[C@H](NC(=O)[C@H](CCCN=C(N)N)NC(=O)[C@@H](NC(=O)[C@@H](NC(=O)[C@@H]1CCCN1C(=O)[C@@H](NC(=O)[C@@H](NC(=O)[C@@H](NC(=O)[C@@H]1CCCN1C(=O)CNC(=O)[C@H](Cc1ccc(O)cc1)NC(=O)[C@H](CCCCN)NC(=O)[C@H](CCCCN)NC(=O)[C@H](Cc1c[nH]c2ccccc12)NC(=O)[C@H](C)NC(=O)[C@H](CCCN=C(N)N)NC(=O)[C@H](CC(C)C)NC(=O)[C@@H](NC(=O)[C@H](CCCCN)NC(=O)[C@H](CCCN=C(N)N)NC(=O)CNC(=O)[C@H](CC(C)C)NC(=O)[C@H](CO)NC(=O)[C@H](CCCN=C(N)N)NC(=O)[C@H](CC(C)C)NC(=O)CNC(=O)CN)[C@@H](C)CC)[C@@H](C)CC)[C@@H](C)CC)C(C)C)[C@@H](C)CC)[C@@H](C)CC)C(=O)NCC(N)=O` [GGLRSLGRKILRAWKKYGPIIVPIIRIG], the MIC against Staphylococcus aureus was determined as 2.83 µM (≈ 8.86 µg/mL); in test [14] it was 1 µM (≈ 3.13 µg/mL); in test [15] it was 2 µM (≈ 6.26 µg/mL); in [16] it was 2 µM (≈ 6.26 µg/mL); in [17], 3 µM (≈ 9.39 µg/mL); against Streptococcus agalactiae, 2.83 µM (≈ 8.86 µg/mL). For the same molecule, the MIC in test [18] was determined as 2.6 µM (≈ 8.14 µg/mL); in the test with Escherichia coli D21 it was 0.5 µM (≈ 1.57 µg/mL); against Escherichia coli ML-35, 2 µM (≈ 6.26 µg/mL); in test [19], 1 µM (≈ 3.13 µg/mL); against Cryptococcus neoformans it was 4 µM (≈ 12.5 µg/mL); against Serratia marcescens, 8 µM (≈ 25 µg/mL). The MIC in test [10] was 2 µM (≈ 6.26 µg/mL); in [20], 1.6 µM (≈ 5.01 µg/mL); in test [12], 2 µM and > 1 µM; in the test with Bacillus megaterium Bm11, 2 µM (≈ 6.26 µg/mL); in test [21], 2 µM (≈ 6.26 µg/mL); against Candida albicans, 8 µM (≈ 25 µg/mL). For the same molecule, the MIC in [22] was determined as 1 µM (≈ 3.13 µg/mL); in test [23] it was 2.4 µM (≈ 7.51 µg/mL); against Enterococcus faecium, 2.83 µM (≈ 8.86 µg/mL).

Take `CSCC[C@H](NC(=O)[C@H](CC(N)=O)NC(=O)[C@@H]1CCCN1C(=O)[C@@H]1CCCN1C(=O)[C@H](CCCNC(=N)N)NC(=O)[C@@H]1CCCN1C(=O)[C@H](CCCNC(=N)N)NC(=O)[C@@H]1CCCN1C(=O)[C@H](CCCNC(=N)N)NC(=O)[C@H](Cc1ccc(O)cc1)NC(=O)[C@H](CC(=O)O)NC(=O)[C@@H]1CCCN1C(=O)[C@H](CCCCN)NC(=O)[C@H](CC(=O)O)NC(=O)[C@@H](N)C(C)C)C(=O)O` [VDKPDYRPRPRPPNM]: the MIC in the test on Escherichia coli D31 was at least 141 µM; against Bacillus subtilis QB935, at least 200 µM; in the test on Staphylococcus aureus, over 200 µM; with Escherichia coli K-12, at least 100 µM; in test [24], at least 200 µM; in test [25], at least 141 µM. For the same molecule, the MIC in [26] was at least 141 µM; in the test on Klebsiella pneumoniae it was over 200 µM; against Salmonella typhimurium, at least 70.7 µM; in the test with Escherichia coli D22 it was at least 70.7 µM; with Alcaligenes faecalis, at least 70.7 µM; in test [27], at least 200 µM. The MIC was at least 100 µM against Burkholderia cepacia; at least 200 µM against Micrococcus luteus; at least 200 µM in the test on Bacillus megaterium; at least 200 µM in the test with Enterococcus faecalis; at least 200 µM with Aerococcus viridans; at least 200 µM in the test on Serratia marcescens Db11. For the same molecule, the MIC in the test with Escherichia coli 1106 was at least 141 µM; in test [28], at least 100 µM; against Bacillus thuringiensis, at least 200 µM.
